Test results: patent publication US20260365637A1, “DUAL EZH2-HSP90 INHIBITORS” (TAIPEI MEDICAL UNIVERSITY, priority 2023, published 2026)

Legend:
GBM cells = conditions: literature, cited from earlier work
brafv600e mutant GBM = conditions: literature; cited from earlier work
HSP90a = HSP90a (Homo sapiens, UniProt P07900); assay: In vitro HSP90 inhibition assay (Reaction Biology Corporation); type: biochemical
Method: The HSP90 inhibitory activity of the synthesized adduct was assessed by Reaction Biology Corporation, Malvern, PA (http://www.reactionbiology.com).
An in-vitro experiment was performed to assess the inhibitory effect of the synthesized adducts on the heat shock protein 90 (HSP90).

EZH2 (Core Histone) = EZH2 (Core Histone) (Homo sapiens, UniProt Q15910); assay: EZH2 inhibition assay (Reaction Biology Corporation); type: biochemical
Method: The EZH2 inhibitory ability of the synthesized adduct was assessed by Reaction Biology Corporation, Malvern, PA (http://www.reactionbiology.com).

Pt3R cells = assay: Cell viability / cytotoxicity of TMZ-resistant Pt3R cells (CCK8); type: cell-based, human; conditions: for IC50: read-out: Cell growth inhibitory effect IC50
GBM cell lines = assay: Preliminary screening of cell growth inhibition in GBM cell lines; type: cell-based; conditions: for cytotoxicity / cell growth inhibition against GBM cell lines: preliminary screening
Excerpt: As such, Hsp90 is an ATP-dependent molecular chaperone that regulates protein conformation, stability, and degradation. Several HSP90 inhibitors have been evaluated for their anti-GBM efficacy at a preliminary level. […] Reduction in the mRNA and protein expression of EGFR, PDGFRA, CDK4, and NF1 in heterogeneous GBM cells was also evidenced in treatment with AUY922.

Chain of EZH2 (Core Histone) (Q15910 whole entry): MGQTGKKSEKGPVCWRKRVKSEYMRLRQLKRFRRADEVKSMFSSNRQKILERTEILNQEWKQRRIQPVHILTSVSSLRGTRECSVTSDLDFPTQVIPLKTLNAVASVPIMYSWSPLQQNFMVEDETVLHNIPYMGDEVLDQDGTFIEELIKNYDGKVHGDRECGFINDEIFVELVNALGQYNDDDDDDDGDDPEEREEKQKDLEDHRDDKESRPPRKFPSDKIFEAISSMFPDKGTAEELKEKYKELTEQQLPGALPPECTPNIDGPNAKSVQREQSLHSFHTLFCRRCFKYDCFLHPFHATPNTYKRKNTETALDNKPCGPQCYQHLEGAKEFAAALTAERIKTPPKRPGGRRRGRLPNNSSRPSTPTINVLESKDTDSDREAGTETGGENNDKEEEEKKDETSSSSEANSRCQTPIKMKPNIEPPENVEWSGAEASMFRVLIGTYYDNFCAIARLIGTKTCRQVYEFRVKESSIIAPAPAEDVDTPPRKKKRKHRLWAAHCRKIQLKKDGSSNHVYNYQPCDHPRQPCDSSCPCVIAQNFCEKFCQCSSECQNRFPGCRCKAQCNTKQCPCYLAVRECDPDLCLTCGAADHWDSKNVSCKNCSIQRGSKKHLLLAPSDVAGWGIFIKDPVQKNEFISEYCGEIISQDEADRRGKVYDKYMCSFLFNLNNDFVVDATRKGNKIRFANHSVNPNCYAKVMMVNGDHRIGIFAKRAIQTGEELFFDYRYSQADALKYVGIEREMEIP
Chain of EZH2 (Core Histone) (O75530 whole entry partner): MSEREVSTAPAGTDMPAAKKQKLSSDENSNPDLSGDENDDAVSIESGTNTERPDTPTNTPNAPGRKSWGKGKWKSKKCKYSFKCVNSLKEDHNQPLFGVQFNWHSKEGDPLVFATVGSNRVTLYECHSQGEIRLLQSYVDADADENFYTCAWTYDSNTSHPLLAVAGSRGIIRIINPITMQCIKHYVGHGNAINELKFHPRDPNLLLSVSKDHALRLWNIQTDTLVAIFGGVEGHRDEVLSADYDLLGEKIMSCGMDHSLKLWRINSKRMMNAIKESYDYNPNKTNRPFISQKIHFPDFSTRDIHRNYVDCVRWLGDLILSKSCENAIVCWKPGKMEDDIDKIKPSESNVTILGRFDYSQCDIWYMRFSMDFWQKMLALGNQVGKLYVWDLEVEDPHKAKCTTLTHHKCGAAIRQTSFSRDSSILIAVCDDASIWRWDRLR
Chain of EZH2 (Core Histone) (Q15022 whole entry partner): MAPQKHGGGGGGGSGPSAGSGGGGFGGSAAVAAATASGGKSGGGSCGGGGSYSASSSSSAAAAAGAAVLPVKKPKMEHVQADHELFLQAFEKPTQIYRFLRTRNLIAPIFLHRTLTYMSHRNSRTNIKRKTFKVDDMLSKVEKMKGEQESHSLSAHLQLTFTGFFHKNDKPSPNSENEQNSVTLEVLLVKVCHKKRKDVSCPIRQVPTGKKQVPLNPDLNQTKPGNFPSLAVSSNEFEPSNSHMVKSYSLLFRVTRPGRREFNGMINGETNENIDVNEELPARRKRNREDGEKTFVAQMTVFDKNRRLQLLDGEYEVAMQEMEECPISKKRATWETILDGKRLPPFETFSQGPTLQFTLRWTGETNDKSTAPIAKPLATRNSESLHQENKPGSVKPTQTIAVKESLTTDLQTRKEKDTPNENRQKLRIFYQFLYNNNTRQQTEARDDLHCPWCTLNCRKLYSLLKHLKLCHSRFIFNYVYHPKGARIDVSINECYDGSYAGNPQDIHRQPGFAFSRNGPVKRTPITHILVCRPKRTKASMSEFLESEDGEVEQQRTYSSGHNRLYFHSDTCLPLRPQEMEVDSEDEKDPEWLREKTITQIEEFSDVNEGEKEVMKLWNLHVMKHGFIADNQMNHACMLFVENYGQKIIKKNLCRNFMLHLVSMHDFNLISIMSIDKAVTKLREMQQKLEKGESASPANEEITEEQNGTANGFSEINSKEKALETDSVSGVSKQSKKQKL
Chain of EZH2 (Core Histone) (Q09028 whole entry partner): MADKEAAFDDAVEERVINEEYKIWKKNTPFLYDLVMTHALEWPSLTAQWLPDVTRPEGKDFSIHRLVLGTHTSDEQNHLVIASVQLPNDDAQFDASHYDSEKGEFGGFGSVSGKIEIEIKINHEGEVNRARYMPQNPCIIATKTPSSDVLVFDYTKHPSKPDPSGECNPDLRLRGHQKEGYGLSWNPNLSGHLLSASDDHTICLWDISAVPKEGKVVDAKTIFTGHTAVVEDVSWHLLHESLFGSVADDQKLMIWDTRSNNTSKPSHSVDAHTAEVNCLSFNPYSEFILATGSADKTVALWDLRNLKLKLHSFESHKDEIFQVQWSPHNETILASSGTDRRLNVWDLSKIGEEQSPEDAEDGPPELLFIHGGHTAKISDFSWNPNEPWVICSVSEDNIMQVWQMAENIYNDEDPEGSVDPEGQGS
Chain of EZH2 (Core Histone) (Q6ZN18 whole entry partner): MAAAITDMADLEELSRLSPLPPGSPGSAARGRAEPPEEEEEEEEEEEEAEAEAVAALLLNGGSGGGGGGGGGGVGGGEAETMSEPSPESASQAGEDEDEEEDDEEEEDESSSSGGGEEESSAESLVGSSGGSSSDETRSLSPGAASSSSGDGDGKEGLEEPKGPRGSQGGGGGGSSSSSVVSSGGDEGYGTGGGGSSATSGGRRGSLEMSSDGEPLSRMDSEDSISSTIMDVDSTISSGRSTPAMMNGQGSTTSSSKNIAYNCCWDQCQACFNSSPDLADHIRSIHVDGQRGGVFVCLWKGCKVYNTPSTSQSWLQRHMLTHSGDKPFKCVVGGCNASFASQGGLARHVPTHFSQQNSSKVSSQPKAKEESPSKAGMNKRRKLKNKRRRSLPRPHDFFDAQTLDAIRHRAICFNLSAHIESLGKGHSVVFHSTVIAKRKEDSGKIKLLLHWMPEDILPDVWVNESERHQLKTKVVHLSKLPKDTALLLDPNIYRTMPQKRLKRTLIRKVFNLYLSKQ

HSP90 inhibitory potential in words (HSP90a)	IC50 (EZH2 (Core Histone)) [µM]	IC50 (HSP90a) [µM]	Compound	cell growth / viability inhibitory effect in words (Pt3R cells)	IC50 (Pt3R cells) [µM]	further results
			CCNC(=O)c1noc(-c2cc(C(C)C)c(O)cc2O)c1-c1ccc(CN2CCOCC2)cc1 [AUY922]			mRNA and protein expression of EGFR, PDGFRA, CDK4, and NF1 (GBM cells; heterogeneous GBM cells): Reduction; anti-GBM effect in GBM cells (GBM cells): led to GBM cell death via apoptosis and autophagy
			COc1c(C)cnc(Cn2cnc3c(Cl)nc(N)nc32)c1C [BIIB021]			resistance to molecular targeted therapy (brafv600e mutant GBM): overcome resistance to molecular targeted therapy
devoid of HSP90 inhibitory potential	0.00614		CCN(c1cc(-c2ccc(NC(=O)c3cc(C(C)C)c(O)cc3O)cc2)cc(C(=O)NCc2c(C)cc(C)[nH]c2=O)c1C)C1CCOCC1 [Compound 1, 4′-(2,4-dihydroxy-5-isopropylbenzamido)-N-((4,6-dimethyl-2-oxo-1,2-dihydropyridin-3-yl)methyl)-5-(ethyl(tetrahydro-2H-pyran-4-yl)amino)-4-methyl-[1,1′-biphenyl]-3-carboxamide]	unable to exert cell growth inhibitory effects	> 79.8	
devoid of HSP90 inhibitory potential	0.00206		CCN(c1cc(-c2cccc(NC(=O)c3cc(C(C)C)c(O)cc3O)c2)cc(C(=O)NCc2c(C)cc(C)[nH]c2=O)c1C)C1CCOCC1 [Compound 2, 3′-(2,4-dihydroxy-5-isopropylbenzamido)-N-((4,6-dimethyl-2-oxo-1,2-dihydropyridin-3-yl)methyl)-5-(ethyl(tetrahydro-2H-pyran-4-yl)amino)-4-methyl-[1,1′-biphenyl]-3-carboxamide]	unable to exert cell growth inhibitory effects	> 79.8	potency in inhibiting EZH2 relative to compound 1 (EZH2 (Core Histone); compound 2 (3′) vs counterpart 1 (4′)): 3 fold
conferred HSP90 inhibitory potential	0.00721	0.343	CCN(c1cc(-c2ccc(N(C)C(=O)c3cc(C(C)C)c(O)cc3O)cc2)cc(C(=O)NCc2c(C)cc(C)[nH]c2=O)c1C)C1CCOCC1 [Compound 3, 4′-(2,4-dihydroxy-5-isopropyl-N-methylbenzamido)-N-((4,6-dimethyl-2-oxo-1,2-dihydropyridin-3-yl)methyl)-5-(ethyl(tetrahydro-2H-pyran-4-yl)amino)-4-methyl-[1,1′-biphenyl]-3-carboxamide]	the only ones to exert cell viability inhibitory potential	27.4	
conferred HSP90 inhibitory potential	0.00735	0.823	CCN(C(=O)c1cc(C(C)C)c(O)cc1O)c1ccc(-c2cc(C(=O)NCc3c(C)cc(C)[nH]c3=O)c(C)c(N(CC)C3CCOCC3)c2)cc1 [Compound 4, N-((4,6-dimethyl-2-oxo-1,2-dihydropyridin-3-yl)methyl)-5-(ethyl(tetrahydro-2H-pyran-4-yl)amino)-4′-(N-ethyl-2,4-dihydroxy-5-isopropylbenzamido)-4-methyl-[1,1′-biphenyl]-3-carboxamide]			
conferred HSP90 inhibitory potential	0.0366	0.0636	CCN(C(=O)c1cc(C(C)C)c(O)cc1O)c1cccc(-c2cc(C(=O)NCc3c(C)cc(C)[nH]c3=O)c(C)c(N(CC)C3CCOCC3)c2)c1 [Compound 8, N-((4,6-dimethyl-2-oxo-1,2-dihydropyridin-3-yl)methyl)-5-(ethyl(tetrahydro-2H-pyran-4-yl)amino)-3′-(N-ethyl-2,4-dihydroxy-5-isopropylbenzamido)-4-methyl-[1,1′-biphenyl]-3-carboxamide]	the only ones to exert cell viability inhibitory potential	10.8	
			CC(C)c1cc(-c2n[nH]c(=O)n2-c2ccc3c(ccn3C)c2)c(O)cc1O [STA9090]			cytotoxicity / cell growth inhibition against GBM cell lines (GBM cell lines): moderate cytotoxicity; cell growth inhibitory effects relative to the cocktail (GBM cell lines; single agent vs combination with Tazemetostat): several fold less than that observed with the cocktail
			CCN(c1cc(-c2ccc(CN3CCOCC3)cc2)cc(C(=O)NCc2c(C)cc(C)[nH]c2=O)c1C)C1CCOCC1 [Tazemetostat]	unable to exert cell growth inhibitory effects		anti-GBM efficacy (GBM cell lines): did not exhibit anti-GBM efficacy; cytotoxicity / cell growth inhibition against GBM cell lines (GBM cell lines; listed as tazemetosat): cytotoxicity-devoid trends; cytotoxicity / cell growth inhibition against GBM cell lines (GBM cell lines; listed as tazemetostat (I)): could not exert cell growth inhibitory potential against the GBM cell lines
			O=C1C=C(Nc2ccc3cnccc3c2)c2ccccc2C1=O [YZ129]			anti-GBM effect in GBM cells (GBM cells): promoted apoptosis and exerted GBM cell cycle arrest at the G2/M phase, inhibiting tumour cell proliferation and migration

Compound	HSP90 inhibitory potential in words (HSP90a)	IC50 (EZH2 (Core Histone)) [µM]	IC50 (HSP90a) [µM]	cell growth / viability inhibitory effect in words (Pt3R cells)	IC50 (Pt3R cells) [µM]	further results
CCCN(C(=O)c1cc(C(C)C)c(O)cc1O)c1ccc(-c2cc(C(=O)NCc3c(C)cc(C)[nH]c3=O)c(C)c(N(CC)C3CCOCC3)c2)cc1 [Compound 5, 4′-(2,4-dihydroxy-5-isopropyl-N-propylbenzamido)-N-((4,6-dimethyl-2-oxo-1,2-dihydropyridin-3-yl)methyl)-5-(ethyl(tetrahydro-2H-pyran-4-yl)amino)-4-methyl-[1,1′-biphenyl]-3-carboxamide]	could not replicate the activity-conferring trends	0.0218			> 79.8	
CCN(c1cc(-c2ccc(N(Cc3ccccc3)C(=O)c3cc(C(C)C)c(O)cc3O)cc2)cc(C(=O)NCc2c(C)cc(C)[nH]c2=O)c1C)C1CCOCC1 [Compound 6, 4′-(N-benzyl-2,4-dihydroxy-5-isopropylbenzamido)-N-((4,6-dimethyl-2-oxo-1,2-dihydropyridin-3-yl)methyl)-5-(ethyl(tetrahydro-2H-pyran-4-yl)amino)-4-methyl-[1,1′-biphenyl]-3-carboxamide]	could not replicate the activity-conferring trends	0.0117			> 79.8	
CCCN(C(=O)c1cc(C(C)C)c(O)cc1O)c1cccc(-c2cc(C(=O)NCc3c(C)cc(C)[nH]c3=O)c(C)c(N(CC)C3CCOCC3)c2)c1 [Compound 9, 3′-(2,4-dihydroxy-5-isopropyl-N-propylbenzamido)-N-((4,6-dimethyl-2-oxo-1,2-dihydropyridin-3-yl)methyl)-5-(ethyl(tetrahydro-2H-pyran-4-yl)amino)-4-methyl-[1,1′-biphenyl]-3-carboxamide]	could not replicate the activity-conferring trends	0.0401	9.33	unable to exert cell growth inhibitory effects	> 79.8	
CCN(c1cc(-c2cccc(N(Cc3ccccc3)C(=O)c3cc(C(C)C)c(O)cc3O)c2)cc(C(=O)NCc2c(C)cc(C)[nH]c2=O)c1C)C1CCOCC1 [Compound 10, 3′-(N-benzyl-2,4-dihydroxy-5-isopropylbenzamido)-N-((4,6-dimethyl-2-oxo-1,2-dihydropyridin-3-yl)methyl)-5-(ethyl(tetrahydro-2H-pyran-4-yl)amino)-4-methyl-[1,1′-biphenyl]-3-carboxamide]	could not replicate the activity-conferring trends	0.641	2.84	unable to exert cell growth inhibitory effects	> 79.8	
